Measurements from patent US20240358679A1, “PHARMACEUTICAL AND FOOD COMPOSITIONS FOR THE PREVENTION, ALLEVIATION, OR TREATMENT OF INFLAMMATORY DISEASES COMPRISING 1-ALKYL-5-ARYLIDENE-2-SELENOXOIMIDAZOLIDIN-4-ONE AND ITS DERIVATIVES” (priority 2022, published 2024).

Legend:
Type in all cases: cell-based
[1] = system: SH-SY5Y cell line; experiment: Inhibition of reactive oxygen species generation (CM-H2DCFDA fluorescence); conditions: compound 10 μM
Method: It is known that the administration of MPP+ or rotenone to cell lines results in the generation of reactive oxygen species (ROS) due to mitochondrial inhibition, the activation of NOX enzymes and the like. The excessively generated ROS can induce various inflammatory responses through multiple pathways. The ROS generated in this process react with the CM-H2DCFDA reagent to produce fluorescence, thereby allowing the indirect quantification of ROS.
Specifically, the SH-SY5Y cell line was treated with Compound 1aaa (Compound 1, 10 μM), apocynin (5 μM), or allopurinol (50 μM), and then with MPP+ (2 mM) or rotenone (2 μM) for 24 hours. The effect of each compound to inhibit the generation of reactive oxygen species is illustrated in FIGS. 2 and 3 as a relative percentage to that of the control group.

[2] = system: SH-SY5Y cell line; experiment: Cell viability (MTT assay); conditions: compound 0.5 μM; for cell viability after MPP+: MPP+ (2 mM) 24 hours; for cell viability after rotenone: rotenone (2 μM) 24 hours
Method: The treatment of cell lines with the toxic substances MPP+ or rotenone induces cytotoxicity due to various inflammatory and immune response abnormalities. The viability of the cells under these conditions can be measured using the MTT assay.
Specifically, the SH-SY5Y cell line was treated with 0.5 μM of Compound 1aaa (Compound 1), 1aca (Compound 24), 1ace (Compound 27), 1ahe (Compound 44) or 1aje (Compound 62) and then with MPP+ (2 mM) or rotenone (2 μM) for 24 hours. Cell viability in the case of being treated with each compound is illustrated in FIGS. 4 and 5.

[3] = system: Nrf-2; experiment: Nrf-2 induction, Western blot of nuclear fraction; conditions: SH-SY5Y, compound 10 μM, 24 hours, increase
Method: When oxidative stress caused by reactive oxygen species increases in cells, the synthesis of antioxidants increases in response to this. One of the transcription factors mediating this antioxidant response is Nrf-2. As the transcription factor Nrf-2 enters the nucleus and the expression of genes related to antioxidation increases, the antioxidant capacity of cells increases,
Specifically, the SH-SY5Y cell line was exposed to Compound 1aaa (Compound 1, 10 μM) for 24 hours and then the cells were taken. Thereafter, the nuclear fraction was extracted, then Western blotting was performed to analyze the amount of Nrf-2 in the nucleus, and the results are illustrated in FIG. 6.

[4] = system: BV2 cell lines; experiment: Anti-inflammatory activity: morphological changes of LPS-treated BV2 cells; conditions: compound 0.1, 1, 10 μg/ml for 2 hours, then LPS (10 μg/ml), 24 hours
Method: (§1) To evaluate the anti-inflammatory activity of the compounds of the present invention, the morphological changes related to inflammation in cells and the suppression of the expression of inflammatory proteins (IL-1R and COX2) were assessed.
(§2) Specifically, BV2 cell lines were treated with compound 1aaa (0.1, 1, 10 μg/ml) for 2 hours, followed by treatment with LPS (10 μg/ml), and then cultured for 24 hours. Additionally, Western blot analysis was performed to analyze the expression of inflammatory proteins, and the results are shown in FIGS. 8 and 9.

[5] = system: IL-1β; experiment: Anti-inflammatory activity: Western blot of IL-1β expression in LPS-treated BV2 cells; conditions: BV2, compound 0.1, 1, 10 μg/ml, LPS (10 μg/ml), 24 hours
Method: as §1, §2

[6] = system: COX2; experiment: Anti-inflammatory activity: Western blot of COX2 expression in LPS-treated BV2 cells; conditions: BV2, compound 0.1, 1, 10 μg/ml, LPS (10 μg/ml), 24 hours
Method: as §1, §2

SMILES | generation of reactive oxygen species after MPP+ ([1]; MPP+ (2 mM) 24 hours) | generation of reactive oxygen species after rotenone ([1]; rotenone (2 μM) 24 hours) | cell viability after MPP+ [2] | cell viability after rotenone [2] | amount of Nrf-2 in the nucleus [3] | activation of BV2 macrophages (morphology) [4] | expression of IL-1β [5] | expression of COX2 [6]
CN1C(=[Se])N(c2ccccc2)C(=O)/C1=C\c1ccc(O)cc1O [Compound 1, 5-(2,4-dihydroxybenzylidene)-1-methyl-3-phenyl-2-selenoxoimidazolidin-4-one] | effectively inhibits | effectively inhibits | improve cell viability | improve cell viability | about 1.5 times | inhibited the activation of BV2 macrophages in a dose-dependent manner | significantly suppressed | significantly suppressed
CCc1ccc(N2C(=O)/C(=C\c3cc(O)cc(O)c3)N(C)C2=[Se])cc1 [Compound 27, 5-(3,5-dihydroxybenzylidene)-3-(4-ethylphenyl)-1-methyl-2-selenoxoimidazolidin-4-one] |  |  | improve cell viability | improve cell viability |  |  |  | 
CN1C(=[Se])N(CCc2ccccc2)C(=O)/C1=C\c1cc(O)cc(O)c1 [Compound 44, 5-(3,5-dihydroxybenzylidene)-1-methyl-3-phenethyl-2-selenoxoimidazolidin-4-one] |  |  | improve cell viability | improve cell viability |  |  |  | 
CCc1ccc(N2C(=O)/C(=C\c3ccc(O)cc3O)N(C)C2=[Se])cc1 [Compound 24, 5-(2,4-dihydroxybenzylidene)-3-(4-ethylphenyl)-1-methyl-2-selenoxoimidazolidin-4-one] |  |  | improve cell viability | improve cell viability |  |  |  | 
CCCCCCN1C(=O)/C(=C\c2cc(O)cc(O)c2)N(C)C1=[Se] [Compound 62, 5-(3,5-dihydroxybenzylidene)-3-hexyl-1-methyl-2-selenoxoimidazolidin-4-one] |  |  | improve cell viability | improve cell viability |  |  |  | 
